Data published in patent US20260265233A1, “BENZOTHIOPHENE DERIVATIVES AS RXFP1 AGONISTS” (BRISTOL-MYERS SQUIBB COMPANY, priority 2021, published 2026).

Target: T1, human RXFP1 (Homo sapiens, UniProt Q9HBX9)
T1 construct: expressed in transfected cells
T1 sequence (Q9HBX9 1-757): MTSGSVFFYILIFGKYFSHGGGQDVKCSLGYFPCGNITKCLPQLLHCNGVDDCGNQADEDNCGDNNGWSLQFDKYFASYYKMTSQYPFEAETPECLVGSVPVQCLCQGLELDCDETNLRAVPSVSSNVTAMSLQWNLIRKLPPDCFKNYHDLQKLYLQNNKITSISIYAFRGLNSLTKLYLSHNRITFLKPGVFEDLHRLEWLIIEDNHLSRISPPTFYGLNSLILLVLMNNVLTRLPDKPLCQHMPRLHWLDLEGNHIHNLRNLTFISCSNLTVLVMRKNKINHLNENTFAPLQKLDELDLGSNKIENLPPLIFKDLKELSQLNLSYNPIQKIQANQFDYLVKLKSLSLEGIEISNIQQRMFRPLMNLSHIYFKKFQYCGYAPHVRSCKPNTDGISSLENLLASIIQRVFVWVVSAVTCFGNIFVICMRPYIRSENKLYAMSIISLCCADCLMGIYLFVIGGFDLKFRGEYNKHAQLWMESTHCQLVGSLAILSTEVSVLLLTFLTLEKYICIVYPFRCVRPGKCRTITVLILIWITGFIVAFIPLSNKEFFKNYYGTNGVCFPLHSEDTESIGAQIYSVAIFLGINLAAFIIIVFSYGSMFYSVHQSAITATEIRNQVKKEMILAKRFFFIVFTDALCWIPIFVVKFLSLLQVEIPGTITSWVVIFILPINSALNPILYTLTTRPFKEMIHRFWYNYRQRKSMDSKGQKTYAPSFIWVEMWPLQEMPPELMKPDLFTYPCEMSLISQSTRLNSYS
Assay: hRXFP1 HEK293 cAMP assay (HTRF)
Type: cell-based
Conditions: HEK293 cells stably expressing human RXFP1; 30 min at rt; intracellular cAMP by HTRF
How it was run: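 Agonism is measured as cAMP by HTRF, quantified from a standard curve via the 665/590 nm ratio and fitted with a four-parameter logistic equation. Compounds (0.010 nM to 50 μM final, 2% DMSO) were applied for 30 min at rt to human RXFP1-expressing HEK293 cells in assay buffer containing 0.5 mM IBMX.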

Row | SMILES | EC50 [nM]
1 | COc1ccc(N2CCC(NCCS(C)(=O)=O)C2)cc1C(=O)Nc1c(C(=O)Nc2ccc(F)c(C(F)(F)F)c2)sc2cc(C(F)(F)F)ccc12 (centres unmarked) [Example 68, N-(4-fluoro-3-(trifluoromethyl)phenyl)-3-(2-methoxy-5-(3-((2-(methylsulfonyl)ethyl)amino)pyrrolidin-1-yl)benzamido)-6-(trifluoromethyl) benzo[b] thiophene-2-carboxamide] | 1080
2 | COc1ccc(C2CCCN(CCS(C)(=O)=O)CC2)cc1C(=O)Nc1c(C(=O)Nc2ccc(F)c(C(F)(F)F)c2)sc2cc(C(F)(F)F)ccc12 (centres unmarked) [Example 71, N-(4-fluoro-3-(trifluoromethyl)phenyl)-3-(2-methoxy-5-(1-(2-(methylsulfonyl)ethyl)azepan-4-yl)benzamido)-6-(trifluoromethyl) benzo[b] thiophene-2-carboxamide] | 2710
3 | COc1ccc(C2CCCN(CCS(C)(=O)=O)CC2)cc1C(=O)Nc1c(C(=O)Nc2ccc(F)c(C(F)(F)F)c2)sc2cc(C(F)(F)F)ccc12 (centres unmarked) [Example 74, N-(4-fluoro-3-(trifluoromethyl)phenyl)-3-(2-methoxy-5-(1-(2-(methylsulfonyl)ethyl)azepan-4-yl)benzamido)-6-(trifluoromethyl) benzo[b] thiophene-2-carboxamide] | 3370
4 | CNC(=O)CN1CCCC(c2ccc(OC)c(C(=O)Nc3c(C(=O)Nc4ccc(F)c(C(F)(F)F)c4)sc4cc(C(F)(F)F)ccc34)c2)C1 (centres unmarked) [Example 78, N-(4-fluoro-3-(trifluoromethyl)phenyl)-3-(2-methoxy-5-(1-(2-(methylamino)-2-oxoethyl)piperidin-3-yl)benzamido)-6-(trifluoromethyl) benzo[b] thiophene-2-carboxamide] | 835
5 | COc1ccc(C2CCCN(C(=O)OC(C)(C)C)C2)cc1C(=O)Nc1c(C(=O)Nc2ccc(F)c(C(F)(F)F)c2)sc2cc(C(F)(F)F)ccc12 (centres unmarked) [Example 79, tert-butyl 3-(3-((2-((4-fluoro-3-(trifluoromethyl)phenyl)carbamoyl)-6-(trifluoromethyl)benzo[b]thiophen-3-yl)carbamoyl)-4-methoxyphenyl) piperidine-1-carboxylate] | 390
6 | COC(=O)C(=O)N1CCCC(c2ccc(OC)c(C(=O)Nc3c(C(=O)Nc4ccc(F)c(C(F)(F)F)c4)sc4cc(C(F)(F)F)ccc34)c2)C1 (centres unmarked) [Example 80, methyl 2-(3-(3-((2-((4-fluoro-3-(trifluoromethyl)phenyl)carbamoyl)-6-(trifluoromethyl)benzo[b]thiophen-3-yl)carbamoyl)-4-methoxyphenyl)piperidin-1-yl)-2-oxoacetate] | 237
7 | COc1ccc(C2CCCN(C(=O)C(=O)O)C2)cc1C(=O)Nc1c(C(=O)Nc2ccc(F)c(C(F)(F)F)c2)sc2cc(C(F)(F)F)ccc12 (centres unmarked) [Example 81, 2-(3-(3-((2-((4-fluoro-3-(trifluoromethyl)phenyl)carbamoyl)-6-(trifluoromethyl)benzo[b]thiophen-3-yl)carbamoyl)-4-methoxyphenyl)piperidin-1-yl)-2-oxoacetic acid] | 203
8 | COc1ccc(C2CCCN(CC(N)=O)C2)cc1C(=O)Nc1c(C(=O)Nc2ccc(F)c(C(F)(F)F)c2)sc2cc(C(F)(F)F)ccc12 (centres unmarked) [Example 83, 3-(5-(1-(2-amino-2-oxoethyl)piperidin-3-yl)-2-methoxy-benzamido)-N-(4-fluoro-3-(trifluoromethyl)phenyl)-6-(trifluoromethyl) benzo[b] thiophene-2-carboxamide] | 608
9 | COc1ccc(C2CCCN(C3COC3)C2)cc1C(=O)Nc1c(C(=O)Nc2ccc(F)c(C(F)(F)F)c2)sc2cc(C(F)(F)F)ccc12 (centres unmarked) [Example 84, N-(4-fluoro-3-(trifluoromethyl)phenyl)-3-(2-methoxy-5-(1-(oxetan-3-yl)piperidin-3-yl)benzamido)-6-(trifluoromethyl) benzo[b] thiophene-2-carboxamide] | 226
10 | COc1ccc(C2CCCN(CCO)C2)cc1C(=O)Nc1c(C(=O)Nc2ccc(F)c(C(F)(F)F)c2)sc2cc(C(F)(F)F)ccc12 (centres unmarked) [Example 85, N-(4-fluoro-3-(trifluoromethyl)phenyl)-3-(5-(1-(2-hydroxyethyl)piperidin-3-yl)-2-methoxy-benzamido)-6-(trifluoromethyl) benzo[b] thiophene-2-carboxamide] | 1110
11 | COc1ccc(C2CCCN(CC(O)CO)C2)cc1C(=O)Nc1c(C(=O)Nc2ccc(F)c(C(F)(F)F)c2)sc2cc(C(F)(F)F)ccc12 (centres unmarked) [Example 88, 3-(5-(1-(2,3-dihydroxypropyl)piperidin-3-yl)-2-methoxy-benzamido)-N-(4-fluoro-3-(trifluoromethyl)phenyl)-6-(trifluoromethyl) benzo[b] thiophene-2-carboxamide] | 1540
12 | COc1ccc(C2CCCN(CC(C)C)C2)cc1C(=O)Nc1c(C(=O)Nc2ccc(F)c(C(F)(F)F)c2)sc2cc(C(F)(F)F)ccc12 (centres unmarked) [Example 89, N-(4-fluoro-3-(trifluoromethyl)phenyl)-3-(5-(1-isobutylpiperidin-3-yl)-2-methoxy-benzamido)-6-(trifluoromethyl) benzo[b] thiophene-2-carboxamide] | 2180
13 | COc1ccc(C2CCCN(CCCO)C2)cc1C(=O)Nc1c(C(=O)Nc2ccc(F)c(C(F)(F)F)c2)sc2cc(C(F)(F)F)ccc12 (centres unmarked) [Example 90, N-(4-fluoro-3-(trifluoromethyl)phenyl)-3-(5-(1-(3-hydroxypropyl)piperidin-3-yl)-2-methoxy-benzamido)-6-(trifluoromethyl) benzo[b] thiophene-2-carboxamide] | 1580
14 | COc1ccc(C2CCCN(C(=O)C(C)(C)O)C2)cc1C(=O)Nc1c(C(=O)Nc2ccc(F)c(C(F)(F)F)c2)sc2cc(C(F)(F)F)ccc12 (centres unmarked) [Example 92, N-[4-fluoro-3-(trifluoromethyl)phenyl]-3-{5-[1-(2-hydroxy-2-methylpropanoyl)piperidin-3-yl]-2-methoxy-benzamido}-6-(trifluoromethyl)-1-benzothiophene-2-carboxamide] | 165
15 | COC(=O)C(=O)N1CCCC(c2ccc(OC)c(C(=O)Nc3c(C(=O)Nc4ccc(F)c(C(F)(F)F)c4)sc4cc(C(F)(F)F)ccc34)c2)C1 (centres unmarked) [Example 94, methyl 2-(3-(3-((2-((4-fluoro-3-(trifluoromethyl)phenyl)carbamoyl)-6-(trifluoromethyl)benzo[b]thiophen-3-yl)carbamoyl)-4-methoxyphenyl)piperidin-1-yl)-2-oxoacetate] | 245
16 | COc1ccc(C2CCCN(C(=O)CN(C)C)C2)cc1C(=O)Nc1c(C(=O)Nc2ccc(F)c(C(F)(F)F)c2)sc2cc(C(F)(F)F)ccc12 (centres unmarked) [Example 95, 3-(5-(1-(dimethylglycyl)piperidin-3-yl)-2-methoxy-benzamido)-N-(4-fluoro-3-(trifluoromethyl)phenyl)-6-(trifluoromethyl) benzo[b] thiophene-2-carboxamide] | 870
17 | COc1ccc(C2CCCN(C(=O)CN)C2)cc1C(=O)Nc1c(C(=O)Nc2ccc(F)c(C(F)(F)F)c2)sc2cc(C(F)(F)F)ccc12 (centres unmarked) [Example 96, N-(4-fluoro-3-(trifluoromethyl)phenyl)-3-(5-(1-glycylpiperidin-3-yl)-2-methoxy-benzamido)-6-(trifluoromethyl) benzo[b] thiophene-2-carboxamide] | 324
